{"source": "BindingDB's records for doi:10.1021/acs.jmedchem.6b01751", "about": "(Queen Mary University of London, 2017)", "note": "pIC50: −log10 of the molar value.", "data": [{"assay": "Inhibition of RIP1 in mouse L929 cells assessed as reduction in TNFalpha/QVD-Oph-induced necrosis after 24 hrs by Cell Titer-Glo luminescent cell viability assay", "values": [{"compound": "CN1C(=O)[C@@H](NC(=O)c2n[nH]c(Cc3ccccc3)n2)COc2ccccc21", "pIC50": 5.89}]}, {"assay": "Inhibition of RIP1 in human U937 cells assessed as reduction in TNFalpha/QVD-Oph-induced necrosis after 24 hrs by Cell Titer-Glo luminescent cell viability assay", "values": [{"compound": "CN1C(=O)[C@@H](NC(=O)c2cc(Cc3ccccc3)on2)COc2ccc(-c3n[nH]c(=O)o3)cc21", "pIC50": 8.49}, {"compound": "CN1C(=O)[C@@H](NC(=O)c2ncc(Cc3ccccc3)o2)COc2ccccc21", "pIC50": 9.00}, {"compound": "CN1C(=O)[C@@H](NC(=O)c2cc(Cc3ccccc3)n(C)n2)COc2ccccc21", "pIC50": 8.00}, {"compound": "CN1C(=O)[C@@H](NC(=O)c2nnc(Cc3ccccc3)o2)COc2ccccc21", "pIC50": 8.10}, {"compound": "CN1C(=O)[C@@H](NC(=O)c2noc(Cc3ccccc3)n2)COc2ccccc21", "pIC50": 8.30}, {"compound": "CN1C(=O)[C@@H](NC(=O)c2cnn(Cc3ccccc3)c2)COc2ccccc21", "pIC50": 6.20}, {"compound": "CN1C(=O)[C@@H](NC(=O)c2c[nH]c(Cc3ccccc3)n2)COc2ccccc21", "pIC50": 5.70}, {"compound": "O=C(N[C@H]1CCOc2ccccc2NC1=O)c1cc(Cc2ccccc2)on1", "pIC50": 6.20}, {"compound": "CN1C(=O)[C@@H](NC(=O)c2ncn(Cc3ccccc3)n2)COc2ccccc21", "pIC50": 8.80}, {"compound": "CN1C(=O)[C@@H](NC(=O)c2cc(Cc3ccccc3)ccn2)COc2ccccc21", "pIC50": 7.40}, {"compound": "CN1C[C@H](NC(=O)c2cc(Cc3ccccc3)on2)C(=O)N(C)c2ccccc21", "pIC50": 7.70}, {"compound": "CC(=O)Nc1ccc2c(c1)N(C)C(=O)[C@@H](NC(=O)c1cc(Cc3ccccc3)on1)CO2", "pIC50": 8.10}, {"compound": "CC(C)Cc1cc(C(=O)N[C@H]2COc3ccccc3N(C)C2=O)no1", "pIC50": 5.20}, {"compound": "CCCCCc1cc(C(=O)N[C@H]2COc3ccccc3N(C)C2=O)no1", "pIC50": 6.90}, {"compound": "COC(=O)Nc1ccc2c(c1)N(C)C(=O)[C@@H](NC(=O)c1cc(Cc3ccccc3)on1)CO2", "pIC50": 8.00}, {"compound": "CN1C(=O)[C@@H](NC(=O)c2cc(Cc3ccccc3)on2)COc2ccc(NS(C)(=O)=O)cc21", "pIC50": 7.89}, {"compound": "CN1C(=O)[C@@H](NC(=O)c2cc(Cc3ccccc3)on2)COc2ccc(-c3cc[nH]n3)cc21", "pIC50": 8.20}, {"compound": "CN1C(=O)[C@@H](NC(=O)c2coc(Cc3ccccc3)n2)COc2ccccc21", "pIC50": 5.60}, {"compound": "CN1C(=O)[C@@H](NC(=O)c2cn(Cc3ccccc3)nn2)COc2ccccc21", "pIC50": 7.60}, {"compound": "CN1C(=O)[C@@H](NC(=O)c2cccc(Cc3ccccc3)c2)COc2ccccc21", "pIC50": 6.40}, {"compound": "CN1C(=O)[C@@H](NC(=O)c2cc(CC3CCCCC3)on2)COc2ccccc21", "pIC50": 6.30}, {"compound": "CN1C(=O)[C@@H](NC(=O)c2cn(Cc3ccccc3)cn2)COc2ccccc21", "pIC50": 8.20}, {"compound": "CN1C(=O)[C@@H](NC(=O)c2nnn(Cc3ccccc3)n2)COc2ccccc21", "pIC50": 8.60}, {"compound": "CCN1C(=O)[C@@H](NC(=O)c2cc(Cc3ccccc3)on2)COc2ccccc21", "pIC50": 5.10}]}]}
